{"source": "patent US20250207175A1", "about": "“METHOD FOR DETECTING CONTAMINATING CARBOXYLESTERASE ACTIVITY” (Boehringer Ingelheim International GmbH, priority 2022, published 2025)", "key": {"[1]": {"assay": "Solubility of OPTS in H2O (stock solutions, verified by light scattering)", "type": "physicochemical", "details": "water, aqueous stock solution", "procedure": "Stock solutions of the fluorogenic substrate in water were prepared. Aqueous solutions with an OPTS concentration ≥2.0 mM could be prepared. The solubility could be verified by light scattering experiments."}, "[2]": {"type": "physicochemical", "source_text": "In order to be able to determine the enzymatic activity, a substrate, 1-octanoyloxy-pyrene-3,6,8-trisulfonic acid trisodium salt (OPTS), was chosen. Its hydrolytic product, 1-hydroxypyrene-3,6,8-trisulfonic acid trisodium salt (HPTS), can be detected by fluorescence spectroscopy. The change in the fluorescence signal over time is directly related to the change in the concentration of free fluorophore. The conversion was made possible by setting up a calibration curve with a subsequent linear fit (R^2≥0.99). The experiments of the kinetics measurements with the OPTS/4-MUD substrates assay were performed in duplicates. The reaction mixture without the protein of interest, which served as the respective control, was subtracted from the protein-containing batch. The buffer used for OPTS measurements (hydrophilic substrate) contained 0.3 M HOAc, 0.3 M MES, 0.6 M TRIS and 0.6 M NaCl (4×AMT buffer; acetate, MES, TRIS). For 4-MUD substrate measurements (lipophilic substrate) 0.04 M CHAPS was added in addition. The buffer (AMT) was prepared in four-fold concentration (4×AMT) and was added at 25% (v/v) to the reaction mix. All measurements were carried out in multiwell plates with a preparation volume of 300 μL (75 μL 4×AMT buffer, 30 μL substrate, 75 μL enzyme-containing solution, x μL additive, 300 μL ad. H2O) Unless otherwise stated, all fluorescence spectroscopic measurements were performed using 96-well, clear-bottom, non-binding plates (Greiner, Austria) on a SpectraMax M3 PlateReader (Molecular Device, USA) and recorded using SoftMax Pro 7.0.3 software (Molecular Device, USA). The OPTS assay measurements were typically taken at 25° C., λex=403 nm and λem=512 nm and the 4-MUD assay measurements were taken at 25° C., λex=330 nm and λem=450 nm. For evaluation, the detected fluorescence signal for a reaction mix without protein of interest (control) was subtracted from the reaction mix with protein of interest (e.g. DS). Hydrolysis of the substrate has been measured by detecting the fluorescence intensity of the released chromophore (4-MU or HPTS) immediately following mixing in real-time for a few minutes up to 5 hours depending on fluorescence intensity. The changes in the fluorescence signal over time were subsequently converted to hydrolytic activity using previously established calibration curves with a linear fit (R^2≥0.99).\nThe fluorophore HPTS can be released from the substrate (here esterified caprylic acid) by enzymatic or chemical hydrolysis (acidic and alkaline hydrolysis). In order to assess the influence of pH on aqueous solutions of the substrate, 225 μL of a 33.3 μM OPTS solution was added to 75 μL each of AMT buffer (with pH=5.5 and pH=8) and the kinetics of fluorophore release were recorded for two hours.\nThere is a clear difference in the slope of the fluorescence signals for the different pH values. Based on the recorded calibration curves the autohydrolysis rate at pH 5.5 was calculated as 1.58*10^−7 units (μmol*min-1) and the autohydrolysis rate at pH 8.0 was calculated as 3.48*10^−6 units. Thus, the hydrolysis rate at pH 8 is about 22-times higher compared to pH 5.5, showing that hydrolysis of the fluorogenic substrate can be observed over time, at basic pH, but only at a very low level at pH 5.5. […]"}, "[3]": {"assay": "OPTS assay of histidine-containing buffer controls", "details": "histidine concentrations of less than 200 μM; data not shown", "procedure": "9 different antibody (Ab1-Ab9) samples were tested using the OPTS assay. As a control, measurements were performed with the respective same buffer solution as used in the antibody sample.\nSince histidine has been reported previously to mediate hydrolytic activities in aqueous solutions similar to esterases (Delort, Nguyen-Trung et al. 2006, Mason, McCracken et al. 2010, Amano, Kobayashi et al. 2014, Xu, Chen et al. 2017), samples were dialysed against 0.002% NaCl using a two-step dialysis with a molecular weight cut-off (MWCO) of 20K. For preparative dialysis, the pre-wettened dialysis cassette was filled with 2 ml antibody solution and placed in a beaker filled with 1 L NaCl (0.002% w/v) solution with gentle stirring. After one hour the 1 L NaCl solution was replaced with fresh NaCl (0.002% w/v) solution and dialysed for another two hours with gentle stirring. […] In the following the assay was performed using dialysed drug substance samples. The same solution (final solution outside the dialysis cassette) was used as control sample to be subtracted from the test sample."}, "[4]": {"test_system": "lipase activity", "details": "FIG. 10 of WO 2022 049294 A1; cited from earlier work"}}}
{"compound": "CCCCCCCC(=O)Oc1cc(S(=O)(=O)[O-])c2ccc3c(S(=O)(=O)[O-])cc(S(=O)(=O)[O-])c4ccc1c2c43.[Na+].[Na+].[Na+]", "note": "[OPTS, 1-octanoyloxy-pyrene-3,6,8-trisulfonic acid trisodium salt]", "values": [{"measurement": "solubility", "setting": "[1]", "value": "≥ 2000", "unit": "µM"}, {"measurement": "stability of OPTS in solvent (autohydrolysis)", "setting": "[2]", "value": "more stable in DMSO compared to H2O"}, {"measurement": "autohydrolysis rate at pH 5.5", "setting": "[2]; 25 μM OPTS, AMT buffer pH 5.5, two hours", "value": "1.58*10^−7 units (μmol*min-1)"}, {"measurement": "autohydrolysis rate at pH 8.0", "setting": "[2]; 25 μM OPTS, AMT buffer pH 8.0, two hours", "value": "3.48*10^−6 units"}, {"measurement": "hydrolysis rate at pH 8 compared to pH 5.5", "setting": "[2]; autohydrolysis of OPTS", "value": "about 22 times"}, {"measurement": "autohydrolysis of OPTS compared to 4-MUD", "setting": "[2]; particularly at pH 8.0", "value": "more critical"}]}
{"compound": "N[C@@H](Cc1c[nH]cn1)C(=O)O", "note": "[histidine]", "values": [{"measurement": "activity of histidine buffer component in the OPTS assay", "setting": "[3]", "value": "low 10^−7"}]}
{"compound": "polyethylene glycol tert-octylphenyl ether [Triton X-100]", "values": [{"measurement": "effect of detergent on the 4-MUD assay", "setting": "[4]", "value": "inhibited"}]}
